Measurements taken from patent publication US20250376445A1, “COMPOUNDS AND METHODS FOR YAP/TEAD MODULATION AND INDICATIONS THEREFOR” (OPNA BIO SA, priority 2023, published 2025).
Where two headings read alike, the source gives them in different places.

System: TEAD-dependent transcription
Test: TEAD-dependent transcription cell-based reporter assay (MSTO-211H+12XGTIIC luciferase)
Parameters: species or system human
Conditions: MSTO-211H+12XGTIIC reporter cells, 24 hours compound incubation, luminescence normalized to viability, read-out: MSTO-211H GMean IC50 (uM) Cell Assay Reporter Cell Variant: TEAD
Description: The human mesothelioma cell line MSTO-211H was stably transfected with a pGL4.21 plasmid containing a synthetic promoter with 12 copies of the GTIIC TEAD response element that drives the expression of a luciferase reporter gene^1 using Lipofectamine transfection reagent (Thermo Fisher). Transfected cells were selected using puromycin and single cell clones expressing this construct (referred to as MSTO-211H+12XGTIIC) were generated by limiting dilution. MSTO-211H cells was characterized by genetic alterations in key components of the Hippo pathway^2, resulting in up-regulation of YAP/TEAD-mediated transcription. […] To evaluate TEAD inhibitors, the MSTO-211H+12XGTIIC cell line was seeded in a 96-well plate in 50 μL of culture media at 1×10^4 cells per well and incubated at 37° C. overnight. Serial dilutions of compounds (in total volume of 50 μL of culture media) were added to the cells and incubated at 37° C. for 24 hours. Each plate included cells treated with DMSO as high controls and cells treated with 20 μM of the reference compound K-975 (a known TEAD inhibitor)^3 as low controls. Cell viability was assayed by the addition of 25 μL of CellTiter-Fluor reagent (Promega) followed by a 30-minute incubation at 37° C. and quantification of the fluorescence signal (Ex400/Em505). Subsequently, luciferase expression was assayed by the addition of 25 μL of ONE-Glo reagent (Promega) followed by a 10-minute incubation at room temperature and quantification of the luminescence signal. The luminescence signal was normalized to the fluorescence signal to correct for any loss in cell viability over the 24-hour compound incubation period. The percentage of inhibition of normalized luminescence signal, indicative of compound-mediated inhibition of TEAD-dependent transcription, at individual compound concentrations relative to high and low controls was calculated. The data were analyzed by using nonlinear regression to generate IC50 values for individual compounds.

Compound | IC50 (Homo sapiens) [µM] | IC50 [µM]
O=C(CCS(=O)(=O)C(F)(F)F)N1CCc2c(Cc3ccc(C(F)(F)F)cc3)cccc2C1 [O-0001, 1-(5-(4-(trifluoromethyl)benzyl)-3,4-dihydroisoquinolin-2(1H)-yl)-3-((trifluoromethyl)sulfonyl)propan-1-one] | 0.001 to 10 | –
O=C(CCS(=O)(=O)C(F)(F)F)N1CCc2c(cccc2C(F)c2ccc(C(F)(F)F)cc2)C1 (stereo not shown) [O-0002, 1-(5-(fluoro(4-(trifluoromethyl)phenyl)methyl)-3,4-dihydroisoquinolin-2(1H)-yl)-3-((trifluoromethyl)sulfonyl)propan-1-one] | 0.001 to 10 | –
O=C(CCS(=O)(=O)C(F)(F)F)N1CCc2c(cccc2C(O)c2ccc(C(F)(F)F)cc2)C1 (stereo not shown) [O-0004, 1-(5-(hydroxy(4-(trifluoromethyl)phenyl)methyl)-3,4-dihydroisoquinolin-2(1H)-yl)-3-((trifluoromethyl)sulfonyl)propan-1-one] | 0.001 to 10 | –
O=C(c1ccc(C(F)(F)F)cc1)c1cccc2c1CCN(C(=O)CCS(=O)(=O)C(F)(F)F)C2 [O-0005, 1-(5-(4-(trifluoromethyl)benzoyl)-3,4-dihydroisoquinolin-2(1H)-yl)-3-((trifluoromethyl)sulfonyl)propan-1-one] | 0.001 to 10 | –
O=C(CCS(=O)(=O)C(F)(F)F)N1CCc2c(cccc2C(F)c2ccc(C(F)(F)F)nc2)C1 (stereo not shown) [O-0008, 1-(5-(fluoro(6-(trifluoromethyl)pyridin-3-yl)methyl)-3,4-dihydroisoquinolin-2(1H)-yl)-3-((trifluoromethyl)sulfonyl)propan-1-one] | 0.001 to 10 | –
O=C(CCS(=O)(=O)C(F)(F)F)N1CCc2c(cccc2C(F)(F)c2ccc(C(F)(F)F)nc2)C1 [O-0009, 1-(5-(difluoro(6-(trifluoromethyl)pyridin-3-yl)methyl)-3,4-dihydroisoquinolin-2(1H)-yl)-3-((trifluoromethyl)sulfonyl)propan-1-one] | 0.001 to 10 | –
CS(=O)(=O)c1nccc(C(=O)N2CCc3c(cccc3C(=O)c3ccc(C(F)(F)F)cc3)C2)n1 [O-0033, (2-(methylsulfonyl)pyrimidin-4-yl)(5-(4-(trifluoromethyl)benzoyl)-3,4-dihydroisoquinolin-2(1H)-yl)methanone] | 0.001 to 10 | –
O=C(c1ccc(C(F)(F)F)cc1)c1cccc2c1CCN(C(=O)c1c[nH]c(C(F)(F)F)n1)C2 [O-0037, (2-(trifluoromethyl)-1H-imidazol-4-yl)(5-(4-(trifluoromethyl)benzoyl)-3,4-dihydroisoquinolin-2(1H)-yl)methanone] | 0.001 to 10 | –
CS(=O)(=O)c1nc(C(=O)N2CCc3c(cccc3C(=O)c3ccc(C(F)(F)F)cc3)C2)c[nH]1 [O-0038, (2-(methylsulfonyl)-1H-imidazol-4-yl)(5-(4-(trifluoromethyl)benzoyl)-3,4-dihydroisoquinolin-2(1H)-yl)methanone] | 0.001 to 10 | –
O=C(c1ccc(C(F)(F)F)cc1)c1cccc2c1CCN(C(=O)c1cccc3[nH]c(C(F)(F)F)nc13)C2 [O-0046, (2-(trifluoromethyl)-1H-benzo[d]imidazol-4-yl)(5-(4-(trifluoromethyl)benzoyl)-3,4-dihydroisoquinolin-2(1H)-yl)methanone] | 0.001 to 10 | –
O=C(c1ccc(C(F)(F)F)cc1)c1cccc2c1CCN(C(=O)Cc1c[nH]cn1)C2 [O-0047, 2-(1H-imidazol-4-yl)-1-(5-(4-(trifluoromethyl)benzoyl)-3,4-dihydroisoquinolin-2(1H)-yl)ethan-1-one] | 0.001 to 10 | –
O=C(c1ccc(C(F)(F)F)cc1)c1cccc2c1CCN(C(=O)CCc1cnc[nH]1)C2 [O-0048, 3-(1H-imidazol-5-yl)-1-(5-(4-(trifluoromethyl)benzoyl)-3,4-dihydroisoquinolin-2(1H)-yl)propan-1-one] | 0.001 to 10 | –
CS(=O)(=O)c1nc(C(=O)N2CCc3c(cccc3C(F)c3ccc(C(F)(F)F)cc3)C2)c[nH]1 (stereo not shown) [O-0054, (5-(fluoro(4-(trifluoromethyl)phenyl)methyl)-3,4-dihydroisoquinolin-2(1H)-yl)(2-(methylsulfonyl)-1H-imidazol-4-yl)methanone] | 0.001 to 10 | –
O=C(c1c[nH]c(C(F)(F)F)n1)N1CCc2c(cccc2C(F)c2ccc(C(F)(F)F)cc2)C1 (stereo not shown) [O-0055, (5-(fluoro(4-(trifluoromethyl)phenyl)methyl)-3,4-dihydroisoquinolin-2(1H)-yl)(2-(trifluoromethyl)-1H-imidazol-4-yl)methanone] | 0.001 to 10 | –
O=C(Cc1cscn1)N1CCc2c(cccc2C(F)c2ccc(C(F)(F)F)cc2)C1 (stereo not shown) [O-0056, 1-(5-(fluoro(4-(trifluoromethyl)phenyl)methyl)-3,4-dihydroisoquinolin-2(1H)-yl)-2-(thiazol-4-yl)ethan-1-one] | 0.001 to 10 | –
CCOC(c1ccc(C(F)(F)F)cc1)c1cccc2c1CCN(C(=O)CCS(C)(=O)=O)C2 (stereo not shown) [O-0057, 1-(5-(ethoxy(4-(trifluoromethyl)phenyl)methyl)-3,4-dihydroisoquinolin-2(1H)-yl)-3-(methylsulfonyl)propan-1-one] | 0.001 to 10 | –
CS(=O)(=O)c1nccc(C(=O)N2CCc3ccc(C(=O)c4ccc(C(F)(F)F)cc4)cc3C2)n1 [O-0058, (2-(methylsulfonyl)pyrimidin-4-yl)(7-(4-(trifluoromethyl)benzoyl)-3,4-dihydroisoquinolin-2(1H)-yl)methanone] | 0.001 to 10 | –
O=C(CCc1cnc[nH]1)N1CCc2ccc(C(F)(F)c3ccc(C(F)(F)F)nc3)cc2C1 [O-0059, 1-(7-(difluoro(6-(trifluoromethyl)pyridin-3-yl)methyl)-3,4-dihydroisoquinolin-2(1H)-yl)-3-(1H-imidazol-5-yl)propan-1-one] | 0.001 to 10 | –
O=C(Cc1cnc[nH]1)N1CCc2ccc(C(F)(F)c3ccc(C(F)(F)F)nc3)cc2C1 [O-0060, 1-(7-(difluoro(6-(trifluoromethyl)pyridin-3-yl)methyl)-3,4-dihydroisoquinolin-2(1H)-yl)-2-(1H-imidazol-5-yl)ethan-1-one] | 0.001 to 10 | –
CS(=O)(=O)c1nc(C(=O)N2CCc3ccc(C(F)(F)c4ccc(C(F)(F)F)nc4)cc3C2)c[nH]1 [O-0061, (7-(difluoro(6-(trifluoromethyl)pyridin-3-yl)methyl)-3,4-dihydroisoquinolin-2(1H)-yl)(2-(methylsulfonyl)-1H-imidazol-4-yl)methanone] | 0.001 to 10 | –
O=C(CCS(=O)(=O)C(F)(F)F)N1CCc2ccc(C(F)(F)c3ccc(C(F)(F)F)nc3)cc2C1 [O-0062, 1-(7-(difluoro(6-(trifluoromethyl)pyridin-3-yl)methyl)-3,4-dihydroisoquinolin-2(1H)-yl)-3-((trifluoromethyl)sulfonyl)propan-1-one] | 0.001 to 10 | –
O=C(CCS(=O)(=O)C(F)(F)F)N1CCc2ccc(C(F)c3ccc(C(F)(F)F)nc3)cc2C1 (stereo not shown) [O-0063, 1-(7-(fluoro(6-(trifluoromethyl)pyridin-3-yl)methyl)-3,4-dihydroisoquinolin-2(1H)-yl)-3-((trifluoromethyl)sulfonyl)propan-1-one] | 0.001 to 10 | –
CS(=O)(=O)c1nc(C(=O)N2CCc3ccc(C(=O)c4ccc(C(F)(F)F)cc4)cc3C2)c[nH]1 [O-0064, (2-(methylsulfonyl)-1H-imidazol-4-yl)(7-(4-(trifluoromethyl)benzoyl)-3,4-dihydroisoquinolin-2(1H)-yl)methanone] | 0.001 to 10 | –
O=C(c1ccc(C(F)(F)F)cc1)c1ccc2c(c1)CN(C(=O)CCS(=O)(=O)C(F)(F)F)CC2 [O-0065, 1-(7-(4-(trifluoromethyl)benzoyl)-3,4-dihydroisoquinolin-2(1H)-yl)-3-((trifluoromethyl)sulfonyl)propan-1-one] | 0.001 to 10 | –
O=C(CCS(=O)(=O)C(F)(F)F)N1CCc2c(cccc2C(F)c2ccc(C(F)(F)F)nc2)C1 (stereo not shown) [O-0066, 1-(5-{fluoro[6-(trifluoromethyl)-3-pyridyl]methyl}-1,2,3,4-tetrahydro-2-isoquinolyl)-3-(trifluoromesyl)-1-propanone] | – | 0.001 to 10
O=C(c1ccc(C(F)(F)F)cc1)c1cccc2c1CCN(C(=O)Cc1cocn1)C2 [O-0067, 2-(oxazol-4-yl)-1-(5-(4-(trifluoromethyl)benzoyl)-3,4-dihydroisoquinolin-2(1H)-yl)ethan-1-one] | 0.001 to 10 | –
O=C(Cc1c[nH]cn1)N1CCc2c(cccc2C(F)c2ccc(C(F)(F)F)cc2)C1 (stereo not shown) [O-0068, 1-(5-(fluoro(4-(trifluoromethyl)phenyl)methyl)-3,4-dihydroisoquinolin-2(1H)-yl)-2-(1H-imidazol-4-yl)ethan-1-one] | 0.001 to 10 | –
Nc1nc2ccc(C(=O)N3CCc4c(cccc4C(=O)c4ccc(C(F)(F)F)cc4)C3)cc2[nH]1 [O-0069, (2-amino-1H-benzo[d]imidazol-6-yl)(5-(4-(trifluoromethyl)benzoyl)-3,4-dihydroisoquinolin-2(1H)-yl)methanone] | 0.001 to 10 | –
